Experiments:
Assay type in all cases: cell-based, human
[1] = tested on: gastric (stomach) cancer (N87) cell line; assay: 72 hr ATP luminescence cell proliferation inhibition assay, N87; settings: N87 cells
Experimental: (§1) Proliferation inhibition was measured using a 72 hr ATP luminescence assay (Cheng et al., U.S. Pat. No. 8,394,922 B2 (2013)). The antiproliferative effects are reported as IC50's, i.e., the concentration of compound that produces a 50% inhibitory effect on cell proliferation.

[2] = tested on: ovarian cancer (OVCAR3) cell line; assay: 72 hr ATP luminescence cell proliferation inhibition assay, OVCAR3
Experimental: as §1

[3] = tested on: mesothelioma (H226) cancer cell line; assay: 72 hr ATP luminescence cell proliferation inhibition assay, H226
Experimental: as §1

[4] = tested on: colon cancer (HCT116) cell line; assay: 72 hr ATP luminescence cell proliferation inhibition assay, HCT116
Experimental: as §1

IC50 [1]	IC50 ([2]; OVCAR3 cells)	IC50 ([3]; H226 cells)	IC50 ([4]; HCT116 cells)	Compound	IC50 ([1]; Homo sapiens)	IC50 ([2]; Homo sapiens, OVCAR-3, OVCAR3 cells)	IC50 ([3]; Homo sapiens, NCI-H226, H226 cells)	IC50 ([4]; Homo sapiens, HCT-116, HCT116 cells)
0.074 nM	0.16 nM	0.053 nM	0.008 nM	COc1cc2c(cc1OCCCC(=O)Nc1cc(C(=O)Nc3cnn(-c4ccccc4)c3)n(C)c1)N=C[C@@H]1Cc3ccccc3CN1C2=O [(Ib-24)]				
0.002 nM	0.011 nM	0.006 nM	0.003 nM	COC(=O)c1cc(-c2ccc(NC(=O)c3cc(NC(=O)CCCOc4cc5c(cc4OC)C(=O)N4Cc6ccccc6C[C@H]4C=N5)cn3C)cc2)cn1C [(Ib-39)]				
0.091 nM	0.35 nM	0.19 nM	0.057 nM	COc1cc2c(cc1OCCCC(=O)Nc1cc(C(=O)Nc3ccc(-n4cnc(C)c4)c(OC)c3)n(C)c1)N=C[C@@H]1Cc3ccccc3CN1C2=O [(Ib-21)]				
< 0.004 nM	0.44 nM	< 0.004 nM	0.025 nM	COc1cc2c(cc1OCCCC(=O)Nc1cc(C(=O)Nc3ccc(-n4cnc(C)n4)c(O)c3)n(C)c1)N=C[C@@H]1Cc3ccccc3CN1C2=O [(Ib-26)]				
0.014 nM	0.1 nM	0.031 nM	0.027 nM	COc1cc2c(cc1OCCCC(=O)Nc1cc(C(=O)Nc3ccc(-n4cnc(Cl)c4)c(F)c3)n(C)c1)N=C[C@@H]1Cc3ccccc3CN1C2=O [(Ib-20)]				
0.41 nM	1.6 nM	3.1 nM	0.3 nM	COc1cc2c(cc1OCCCC(=O)Nc1cc(C(=O)Nc3ccc4c(c3)-n3cnnc3CO4)n(C)c1)N=C[C@@H]1Cc3ccccc3CN1C2=O [(Ib-32)]				
0.23 nM	0.94 nM	0.28 nM	0.078 nM	COc1cc2c(cc1OCCCC(=O)Nc1cc(C(=O)Nc3ccc4c(c3)OCc3nncn3-4)n(C)c1)N=C[C@@H]1Cc3ccccc3CN1C2=O [(Ib-31)]				
0.055 nM	0.053 nM	0.085 nM	0.045 nM	COc1cc2c(cc1OCCCC(=O)Nc1cc(C(=O)Nc3ccccn3)n(C)c1)N=C[C@@H]1Cc3ccccc3CN1C2=O [(Ib-44)]				
1.1 nM	0.66 nM	1.1 nM	1.1 nM	COC(=O)c1cc(NC(=O)CCCOc2cc3c(cc2OC)C(=O)N2Cc4ccccc4C[C@H]2C=N3)cn1C [(Ib-38)]				
0.042 nM	0.16 nM	0.1 nM	0.041 nM	COc1cc2c(cc1OCCCC(=O)Nc1cc(C(=O)Nc3ccc(-n4cncn4)c(OC)c3)n(C)c1)N=C[C@@H]1Cc3ccccc3CN1C2=O [(Ib-29)]				
3.7 nM	2.2 nM	22 nM	3.7 nM	COc1cc2c(cc1OCCCC(=O)Nc1cc(C(=O)Nc3cccc(OCc4ccccc4)n3)n(C)c1)N=C[C@@H]1Cc3ccccc3CN1C2=O [(Ib-36)]				
0.014 nM	0.022 nM	0.036 nM	0.007 nM	COc1cc2c(cc1OCCCC(=O)Nc1cc(C(=O)Nc3ccc(-c4cocn4)cc3)n(C)c1)N=C[C@@H]1Cc3ccccc3CN1C2=O [(Ib-23)]				
0.022 nM	0.13 nM	0.13 nM	0.019 nM	COc1cc2c(cc1OCCCC(=O)Nc1cc(C(=O)Nc3ccc(Cl)nc3)n(C)c1)N=C[C@@H]1Cc3ccccc3CN1C2=O [(Ib-47)]				
0.038 nM	0.053 nM	0.083 nM	0.022 nM	COc1cc2c(cc1OCCCC(=O)Nc1cc(C(=O)Nc3ccccc3)n(C)c1)N=C[C@@H]1Cc3ccccc3CN1C2=O [(Ib-41)]				
0.026 nM	0.025 nM	0.013 nM	0.008 nM	COc1cc2c(cc1OCCCC(=O)Nc1cc(C(=O)Nc3ccc(-c4ccccc4)cc3)n(C)c1)N=C[C@@H]1Cc3ccccc3CN1C2=O [(Ib-43)]				
0.037 nM	0.7 nM	0.11 nM	0.022 nM	COc1cc2c(cc1OCCCC(=O)Nc1cc(C(=O)Nc3ccc(OCc4ccccc4)cc3)n(C)c1)N=C[C@@H]1Cc3ccccc3CN1C2=O [(Ib-51)]				
< 0.004 nM	0.11 nM	< 0.004 nM	0.047 nM	COc1ccc(NC(=O)c2cc(NC(=O)CCCOc3cc4c(cc3OC)C(=O)N3Cc5ccccc5C[C@H]3C=N4)cn2C)nc1 [(Ib-35)]				
0.021 nM	0.15 nM	0.067 nM	0.02 nM	C=CCOc1cc(NC(=O)c2cc(NC(=O)CCCOc3cc4c(cc3OC)C(=O)N3Cc5ccccc5C[C@H]3C=N4)cn2C)ccc1-n1cnc(C)n1 [(Ib-27)]				
0.39 nM	0.32 nM	0.49 nM	0.38 nM	COc1cc2c(cc1OCCCC(=O)Nc1cc(C(=O)NC3CC3)n(C)c1)N=C[C@@H]1Cc3ccccc3CN1C2=O [(Ib-42)]				
0.37 nM	0.76 nM	0.66 nM	0.1 nM	COc1cc2c(cc1OCCCC(=O)Nc1cc(C(=O)Nc3ccc(-c4ncc[nH]4)cc3)n(C)c1)N=C[C@@H]1Cc3ccccc3CN1C2=O [(Ib-30)]				
0.025 nM	0.01 nM	0.085 nM	0.032 nM	COc1cc2c(cc1OCCCC(=O)Nc1cc(C(=O)Nc3ccc(Cl)cn3)n(C)c1)N=C[C@@H]1Cc3ccccc3CN1C2=O [(Ib-45)]				
1.6 nM	5.2 nM	1.2 nM	1.7 nM	COc1cc2c(cc1OCCCC(=O)Nc1cc(C(=O)Nc3cnc4c(c3)ncn4C)n(C)c1)N=C[C@@H]1Cc3ccccc3CN1C2=O [(Ib-37)]				

Continued, molecule first:

Compound	IC50 [1]	IC50 ([2]; OVCAR3 cells)	IC50 ([3]; H226 cells)	IC50 ([4]; HCT116 cells)	IC50 ([1]; Homo sapiens)	IC50 ([2]; Homo sapiens, OVCAR-3, OVCAR3 cells)	IC50 ([3]; Homo sapiens, NCI-H226, H226 cells)	IC50 ([4]; Homo sapiens, HCT-116, HCT116 cells)
COc1cc2c(cc1OCCCC(=O)Nc1ccc(C(=O)Nc3ccccc3)cc1)N=C[C@@H]1Cc3ccccc3CN1C2=O [(Ib-01)]	0.65 nM	0.38 nM	1.2 nM	0.73 nM				
COc1cc2c(cc1OCCCC(=O)Nc1nc(C(=O)Nc3ccccc3)cs1)N=C[C@@H]1Cc3ccccc3CN1C2=O [(Ib-05)]	0.11 nM	0.27 nM	0.23 nM	0.12 nM				
COc1cc2c(cc1OCCCC(=O)Nc1cccc(C(=O)Nc3ccccc3)c1)N=C[C@@H]1Cc3ccccc3CN1C2=O [(Ib-03)]	2.4 nM	3.1 nM	9.4 nM	6.9 nM				
COc1cc(-c2ccc(NC(=O)c3cc(NC(=O)CCCOc4cc5c(cc4OC)C(=O)N4Cc6ccccc6C[C@H]4C=N5)cn3C)c(OC)c2)ccc1N [(Ib-53)]	0.092 nM	0.22 nM	0.13 nM	0.098 nM				
COc1cc2c(cc1OCCCC(=O)Nc1cc(C(=O)Nc3ccc(-c4cc(-c5ncco5)n(C)c4)cc3)n(C)c1)N=C[C@@H]1Cc3ccccc3CN1C2=O [(Ib-49)]	0.16 nM	0.32 nM	0.062 nM	0.051 nM				
COc1cc2c(cc1OCCCC(=O)Nc1cc(C(=O)Nc3ccc(-n4cncn4)cc3)n(C)c1)N=C[C@@H]1Cc3ccccc3CN1C2=O [(Ib-17)]	0.009 nM	0.028 nM	< 0.004 nM	0.011 nM				
COc1cc2c(cc1OCCCC(=O)Nc1cc(C(=O)Nc3ccc(-n4cnc(C)n4)c(OC(F)F)c3)n(C)c1)N=C[C@@H]1Cc3ccccc3CN1C2=O [(Ib-12)]	0.027 nM	0.074 nM	0.059 nM	0.023 nM				
COc1cc2c(cc1OCCCC(=O)Nc1cc(C(=O)Nc3cc(C)c(-n4cncn4)c(C)c3)n(C)c1)N=C[C@@H]1Cc3ccccc3CN1C2=O [(Ib-28)]	0.18 nM	0.4 nM	0.72 nM	0.18 nM				
COc1cc2c(cc1OCCCC(=O)Nc1cc(C(=O)Nc3ccc(-c4cccc(C(=O)OC(C)C)c4)cc3)n(C)c1)N=C[C@@H]1Cc3ccccc3CN1C2=O [(Ib-14)]	0.049 nM	0.18 nM	0.67 nM	0.07 nM				
COc1cc2c(cc1OCCCC(=O)Nc1cc(C(=O)Nc3ccc(-n4cnc(Cl)c4)c(OC)c3)n(C)c1)N=C[C@@H]1Cc3ccccc3CN1C2=O [(Ib-19)]	0.045 nM	0.23 nM	0.11 nM	0.038 nM				
COc1cc2c(cc1OCCCC(=O)Nc1cc(C(=O)Nc3ccc(N)cc3)n(C)c1)N=C[C@@H]1Cc3ccccc3CN1C2=O [(Ib-52)]	0.45 nM	0.63 nM	0.3 nM	0.28 nM				
COc1cc2c(cc1OCCCC(=O)Nc1cc(C(=O)Nc3ccc(-c4ccc(N)cc4)cc3)n(C)c1)N=C[C@@H]1Cc3ccccc3CN1C2=O [(Ib-54)]					0.027 nM	0.071 nM	0.05 nM	0.007 nM
COc1cc2c(cc1OCCCC(=O)Nc1ccccc1C(=O)Nc1ccccc1)N=C[C@@H]1Cc3ccccc3CN1C2=O [(Ib-02)]	93 nM	140 nM	< 250 nM	< 250 nM				
COc1cc2c(cc1OCCCC(=O)Nc1ncc(C(=O)Nc3ccccc3)s1)N=C[C@@H]1Cc3ccccc3CN1C2=O [(Ib-04)]	2.6 nM	0.78 nM	5.6 nM	2.7 nM				
COc1cc2c(cc1OCCCC(=O)Nc1cn(C)c(C(=O)Nc3ccccc3)n1)N=C[C@@H]1Cc3ccccc3CN1C2=O [(Ib-48)]	0.075 nM	0.094 nM	0.18 nM	0.039 nM				
COc1cc2c(cc1OCCCC(=O)Nc1cc(C(=O)Nc3ccc(-n4cnc(C(F)F)n4)c(OC)c3)n(C)c1)N=C[C@@H]1Cc3ccccc3CN1C2=O [(Ib-10]	0.026 nM	0.037 nM	0.018 nM	0.014 nM				

Source: US10398783B2, “Antiproliferative compounds and conjugates made therefrom” (BRISTOL-MYERS SQUIBB COMPANY, priority 2016, dated 2019)
